Columns and labels:
[1] = Quantification of lentinan in serum after oral administration (Fungitec G test); type: in vivo; settings: mice fed orally four times with 100 μg (total 400 μg) during 4 hr, serum 2 hr after last administration, mean ± SD
Description: Formulations of 400 μg of lentinan dissolved in PBS or associated with liposomes were delivered orally in four doses to fasted mice over a period of 4 hrs. The level of lentinan in blood serum was measured 2 hr after the delivery using the Fungitec G test (Seikagaku Co., Inc.), according to the manufacturer's protocol. Background activity was determined by analyzing lentinan levels in sera of control mice.
We first investigated whether lentinan dissolved in PBS or associated with liposomes would penetrate through the epithelial barrier of the gut. Mice were fed with four doses of liposome-associated or unencapsulated lentinan (total concentration of 400 μg) over a 4-hr period. The level of lentinan in blood serum was analyzed 2 hr after lentinan administration.

[2] = test system: splenocytes stimulated with rgp160

Substance: Lentinan
- Serum concentration of lentinan ([1]; listed as Unencapsulated lentinan): 1,325 ± 1,241 pg/ml
- Serum concentration of lentinan ([1]; listed as unencapsulated lentinan): 1,325±1,241 pg/ml
- Toxic effect to the cells [2]: without any detectable toxic effect
- Env-specific IFN-γ level relative to stimulation with rgp160 in the absence of lentinan ([2]; lentinan 3 μg/ml to 100 μg/ml, 3 days, FIG. 3): ~2 fold
- Effect on env-specific IFN-γ production ([2]; lentinan higher than 100 μg/ml or lower than 3 μg/ml): smaller effect

— US7011845B2, “β-glucans encapsulated in liposomes” (MCP Hahnemann University, priority 2000, dated 2006)
